Molecules are shown by their SMILES.

What all share (design): species or system broiler birds
Details in all cases: in vivo

The test system of one assay is Interferon-γ (IFN-γ).
The next assay relates to Interleukin-6 (IL-6).
In assay [1] the test system is Newcastle disease virus, NDV.
The test system of assay [2] is Newcastle disease virus, NDV. The source holds these as a separate data set.
Assay [3] relates to Newcastle disease virus, NDV. The source holds these as a separate data set.
Assay [4] has as its system Newcastle disease virus, NDV. This is another data set of the same source.

Take `CCC(=O)[O-].CCC(=O)[O-].CCC(=O)[O-].[Cr+3]` [chromium propionate]: the “serum Interferon-γ (IFN-γ) levels” value in the assay with Interferon-γ (IFN-γ) is recorded as “Significantly higher”. Further, in the assay on Interleukin-6 (IL-6), the “post-challenge responses (serum cytokine)” value is “increasing trend” and the “serum Interleukin-6 (IL-6) levels” value is reported as “Significantly higher”. Also, in assay [1], the daily mortality percentages result is recorded as “lower”, the “mortality by day 15 post-challenge” value is 100% and the onset of mortality result is on record as “delayed”. Besides, the “serum antibody titers (HI)” value in assay [2] was “enhanced significantly”. Moreover, the “serum antibody titers (ELISA)” value in assay [3] is “enhanced significantly”. Besides, the “mean viral titer in different organs” value in assay [4] was “lower as compared to the control”.
